In paper PMC12621043, “Un-LOK-ing a New Approach for Conformational Selective Targeting of STK10 (LOK)” (ACS Medicinal Chemistry Letters, 2025) one finds ΔTm data, which are given here for 13 molecules.

Holding throughout (test): DSF Tm panel
What all share (type): binding
Conditions in all cases: 10 μM compound

Experiment [1] deals with T1, STK3 (STK3A) (Homo sapiens, UniProt Q13188).
T1 construct: purchased in-house DSF kinase panel (SGC-style construct names; the trailing letter is the construct ID)
T1 sequence (Q13188 16-313): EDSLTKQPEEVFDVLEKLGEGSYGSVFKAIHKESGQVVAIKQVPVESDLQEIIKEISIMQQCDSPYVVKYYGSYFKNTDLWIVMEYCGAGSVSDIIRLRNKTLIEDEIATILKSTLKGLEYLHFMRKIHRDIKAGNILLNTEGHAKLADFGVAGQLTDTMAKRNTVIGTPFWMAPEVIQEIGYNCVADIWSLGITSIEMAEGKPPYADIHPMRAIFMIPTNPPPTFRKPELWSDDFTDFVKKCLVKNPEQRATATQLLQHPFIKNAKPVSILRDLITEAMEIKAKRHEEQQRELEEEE

Experiment [2] deals with T2, DYRK2A (Homo sapiens, UniProt Q92630).
T2 construct: purchased in-house DSF kinase panel (SGC-style construct names; the trailing letter is the construct ID)
T2 sequence (Q92630 1-601): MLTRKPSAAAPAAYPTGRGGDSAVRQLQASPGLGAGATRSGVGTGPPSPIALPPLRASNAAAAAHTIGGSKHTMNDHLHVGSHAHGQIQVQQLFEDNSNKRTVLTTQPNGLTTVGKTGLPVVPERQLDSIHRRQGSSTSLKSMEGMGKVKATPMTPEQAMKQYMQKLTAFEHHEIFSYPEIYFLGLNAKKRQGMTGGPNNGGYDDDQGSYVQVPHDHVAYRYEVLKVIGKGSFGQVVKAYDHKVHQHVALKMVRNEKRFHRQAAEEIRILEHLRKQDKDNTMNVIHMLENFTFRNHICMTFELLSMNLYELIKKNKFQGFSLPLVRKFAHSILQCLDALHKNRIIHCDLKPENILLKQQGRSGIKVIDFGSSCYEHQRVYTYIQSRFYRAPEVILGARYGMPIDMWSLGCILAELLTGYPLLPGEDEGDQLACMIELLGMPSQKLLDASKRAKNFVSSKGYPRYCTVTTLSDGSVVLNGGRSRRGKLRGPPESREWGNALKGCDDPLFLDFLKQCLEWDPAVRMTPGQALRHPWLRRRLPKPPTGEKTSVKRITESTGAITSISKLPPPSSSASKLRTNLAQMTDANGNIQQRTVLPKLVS

In experiment [3] the target is T3, DAPK3 (DAPK3A) (Homo sapiens, UniProt O43293).
T3 construct: purchased in-house DSF kinase panel (SGC-style construct names; the trailing letter is the construct ID)

Experiment [4] concerns the target T4, PCTK1A (Homo sapiens, UniProt Q00536).
T4 construct: purchased in-house DSF kinase panel (SGC-style construct names; the trailing letter is the construct ID)

Experiment [5] addresses T5, EPHB3A (Homo sapiens, UniProt P54753).
T5 construct: purchased in-house DSF kinase panel (SGC-style construct names; the trailing letter is the construct ID)
T5 sequence (P54753 34-998): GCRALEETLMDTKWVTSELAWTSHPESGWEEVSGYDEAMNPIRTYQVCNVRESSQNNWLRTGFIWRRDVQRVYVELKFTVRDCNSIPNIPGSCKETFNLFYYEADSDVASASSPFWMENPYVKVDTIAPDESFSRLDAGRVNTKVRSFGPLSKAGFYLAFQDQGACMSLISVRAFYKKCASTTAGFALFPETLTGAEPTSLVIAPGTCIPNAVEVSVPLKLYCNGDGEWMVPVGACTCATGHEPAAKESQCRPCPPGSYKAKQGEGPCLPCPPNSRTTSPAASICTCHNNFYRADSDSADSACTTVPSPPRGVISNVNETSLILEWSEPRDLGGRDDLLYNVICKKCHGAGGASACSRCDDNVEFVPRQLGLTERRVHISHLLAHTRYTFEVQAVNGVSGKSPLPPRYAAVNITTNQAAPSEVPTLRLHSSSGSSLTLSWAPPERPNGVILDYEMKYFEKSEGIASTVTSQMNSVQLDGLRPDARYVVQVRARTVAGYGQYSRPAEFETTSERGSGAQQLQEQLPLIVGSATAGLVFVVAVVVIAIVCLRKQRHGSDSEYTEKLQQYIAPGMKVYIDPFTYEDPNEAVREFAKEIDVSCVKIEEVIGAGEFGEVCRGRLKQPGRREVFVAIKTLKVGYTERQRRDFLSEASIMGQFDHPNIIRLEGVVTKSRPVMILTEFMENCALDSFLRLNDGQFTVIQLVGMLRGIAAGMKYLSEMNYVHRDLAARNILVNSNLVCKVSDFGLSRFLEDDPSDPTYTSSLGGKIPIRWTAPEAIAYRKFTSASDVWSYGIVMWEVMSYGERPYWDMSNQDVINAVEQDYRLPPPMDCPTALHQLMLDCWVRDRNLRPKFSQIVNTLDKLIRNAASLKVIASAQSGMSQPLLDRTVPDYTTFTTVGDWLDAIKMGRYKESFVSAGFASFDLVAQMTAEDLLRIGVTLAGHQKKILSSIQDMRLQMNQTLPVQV

Experiment [6] deals with T6, CSNK1DA (Homo sapiens, UniProt P48730).
T6 construct: purchased in-house DSF kinase panel (SGC-style construct names; the trailing letter is the construct ID)
T6 sequence (P48730 1-294): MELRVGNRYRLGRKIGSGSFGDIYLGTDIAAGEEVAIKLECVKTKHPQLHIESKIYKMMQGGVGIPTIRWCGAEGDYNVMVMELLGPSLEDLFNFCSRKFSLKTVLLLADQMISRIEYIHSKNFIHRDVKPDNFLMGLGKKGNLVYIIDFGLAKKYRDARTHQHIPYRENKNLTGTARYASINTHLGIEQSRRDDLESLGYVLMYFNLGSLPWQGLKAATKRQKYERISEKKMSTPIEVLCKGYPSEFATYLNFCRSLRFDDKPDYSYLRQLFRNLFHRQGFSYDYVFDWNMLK

Experiment [7] deals with T7, PKMYT1A (Homo sapiens, UniProt Q99640).
T7 construct: purchased in-house DSF kinase panel (SGC-style construct names; the trailing letter is the construct ID)
T7 sequence (Q99640 75-362): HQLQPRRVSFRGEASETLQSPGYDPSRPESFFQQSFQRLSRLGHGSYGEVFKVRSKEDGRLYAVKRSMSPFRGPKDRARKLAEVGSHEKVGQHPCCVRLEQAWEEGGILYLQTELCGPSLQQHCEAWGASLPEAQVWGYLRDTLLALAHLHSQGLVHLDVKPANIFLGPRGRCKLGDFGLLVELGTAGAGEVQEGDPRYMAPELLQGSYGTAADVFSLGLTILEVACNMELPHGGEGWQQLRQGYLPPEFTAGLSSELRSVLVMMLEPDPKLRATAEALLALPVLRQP

Experiment [8] has as its target T8, CDKL1A (Homo sapiens, UniProt Q00532).
T8 construct: purchased in-house DSF kinase panel (SGC-style construct names; the trailing letter is the construct ID)

T3 sequence (O43293 whole entry): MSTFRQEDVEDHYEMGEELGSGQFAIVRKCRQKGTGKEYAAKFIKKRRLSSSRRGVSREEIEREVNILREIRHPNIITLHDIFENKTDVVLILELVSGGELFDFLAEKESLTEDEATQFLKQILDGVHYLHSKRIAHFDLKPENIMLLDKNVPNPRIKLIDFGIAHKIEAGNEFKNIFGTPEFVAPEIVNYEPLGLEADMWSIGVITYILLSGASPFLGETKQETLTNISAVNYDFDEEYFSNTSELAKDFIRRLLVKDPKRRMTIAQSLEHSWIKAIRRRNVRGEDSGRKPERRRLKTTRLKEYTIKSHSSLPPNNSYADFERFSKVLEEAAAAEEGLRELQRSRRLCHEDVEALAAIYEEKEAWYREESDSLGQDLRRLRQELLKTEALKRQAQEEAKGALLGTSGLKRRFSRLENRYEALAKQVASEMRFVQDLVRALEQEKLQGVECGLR
T4 sequence (Q00536 163-478): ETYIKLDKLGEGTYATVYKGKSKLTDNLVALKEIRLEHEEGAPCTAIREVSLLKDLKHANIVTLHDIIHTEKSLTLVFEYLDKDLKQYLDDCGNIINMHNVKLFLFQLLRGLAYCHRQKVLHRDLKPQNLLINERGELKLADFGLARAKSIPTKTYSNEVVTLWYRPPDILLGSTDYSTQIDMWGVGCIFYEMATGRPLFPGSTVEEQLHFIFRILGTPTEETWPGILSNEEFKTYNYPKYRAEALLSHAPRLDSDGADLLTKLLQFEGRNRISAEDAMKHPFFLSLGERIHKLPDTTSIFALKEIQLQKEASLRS
T8 sequence (Q00532 1-303): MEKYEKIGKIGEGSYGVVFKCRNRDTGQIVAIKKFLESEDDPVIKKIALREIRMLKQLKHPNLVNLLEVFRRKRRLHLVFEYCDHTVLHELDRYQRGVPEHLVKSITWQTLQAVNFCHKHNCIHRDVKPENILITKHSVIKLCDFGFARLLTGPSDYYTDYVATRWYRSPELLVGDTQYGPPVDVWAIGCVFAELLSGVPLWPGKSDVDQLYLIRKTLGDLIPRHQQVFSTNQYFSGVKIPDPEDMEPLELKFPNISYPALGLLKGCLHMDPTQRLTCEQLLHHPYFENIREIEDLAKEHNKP

Regarding `O=C(NCc1ccccc1)Nc1ccc2cc1OCCOCCNc1ccn3ncc-2c3n1` [compound 16], the ΔTm at 10 µM was 5.9 °C in experiment [1]; 3.7 °C in experiment [2]; 3.4 °C in experiment [3]; 1.8 °C in experiment [4]; 0.8 °C in experiment [5]; 0.7 °C in experiment [6]. The figures for the ΔTm at 10 µM in experiment [7] and in experiment [8] were 0.6 °C and -0.1 °C, respectively.

Turning to `O=C(NCc1ccccc1Cl)Nc1ccc2cc1OCCOCCNc1ccn3ncc-2c3n1` [compound 17], the ΔTm at 10 µM in experiment [1] was found to be 6.2 °C; in experiment [2] it was 1.1 °C; in experiment [3], 0.7 °C; in experiment [4], 2.5 °C; in experiment [5] it was 0.3 °C; in experiment [6], 0.6 °C. For the same molecule, the ΔTm at 10 µM in experiment [7] is 1 °C; in experiment [8], 0.4 °C.

Turning to `O=C(NCc1cccc(Cl)c1)Nc1ccc2cc1OCCOCCNc1ccn3ncc-2c3n1` [compound 18], the shift in melting temperature (ΔTm) at 10 µM in experiment [1] amounted to 8 °C; in experiment [2] it was 2.8 °C; in experiment [3] it was 1.3 °C; in experiment [4], 1.3 °C; in experiment [5] it was 0.2 °C; in experiment [6], 0.4 °C. Besides, the values for the thermal shift (ΔTm) at 10 µM in experiment [7] and in experiment [8] were 1.5 °C and -0.1 °C, respectively.

`O=C(NCc1ccc(Cl)cc1)Nc1ccc2cc1OCCOCCNc1ccn3ncc-2c3n1` [compound 19]: the ΔTm at 10 µM was 6.7 °C in experiment [1]; 0.2 °C in experiment [2]; 0.9 °C in experiment [3]; 1.3 °C in experiment [4]; -0.1 °C in experiment [5]; 0.4 °C in experiment [6]. For the same molecule, the ΔTm at 10 µM is 1.4 °C in experiment [7] and 0.3 °C in experiment [8].

For the molecule `O=C(NCc1ccc(Cl)cc1Cl)Nc1ccc2cc1OCCOCCNc1ccn3ncc-2c3n1` [compound 20], the ΔTm at 10 µM came to 8 °C in experiment [1]; 0.6 °C in experiment [2]; 0.5 °C in experiment [3]; 1.1 °C in experiment [4]; 0.1 °C in experiment [5]; 0.4 °C in experiment [6]. Besides, the shift in melting temperature (ΔTm) at 10 µM in experiment [7] is 1.6 °C; in experiment [8], 0.9 °C.

Turning to `O=C(NCc1ccc(Cl)cc1F)Nc1ccc2cc1OCCOCCNc1ccn3ncc-2c3n1` [compound 21], the thermal shift (ΔTm) at 10 µM was 6.9 °C in experiment [1]; 0.7 °C in experiment [2]; 1.1 °C in experiment [3]; 1.1 °C in experiment [4]; -0.4 °C in experiment [5]; 0 °C in experiment [6]. Further, the thermal shift (ΔTm) at 10 µM in experiment [7] turned out to be 1.9 °C; in experiment [8] it was 0 °C.

As for `Cc1cc(Cl)ccc1CNC(=O)Nc1ccc2cc1OCCOCCNc1ccn3ncc-2c3n1` [compound 23], the ΔTm at 10 µM in experiment [1] is 9.1 °C; in experiment [2] it was 0.8 °C; in experiment [3] it was -0.3 °C; in experiment [4], 2.8 °C; in experiment [5], 0.9 °C; in experiment [6], 1.2 °C. Besides, the shift in melting temperature (ΔTm) at 10 µM in experiment [7] was 2.1 °C; in experiment [8], 0.4 °C.

Consider `Cc1cc(Br)ccc1CNC(=O)Nc1ccc2cc1OCCOCCNc1ccn3ncc-2c3n1` [compound 24], for which the shift in melting temperature (ΔTm) at 10 µM came out at 3.8 °C in experiment [1]; 0.5 °C in experiment [2]; 0.4 °C in experiment [3]; 0.7 °C in experiment [4]; 0.7 °C in experiment [5]; 0.2 °C in experiment [6]. Also, the thermal shift (ΔTm) at 10 µM in experiment [7] and in experiment [8] was 0.5 °C in each case.

Regarding `Cc1ccc(F)cc1CNC(=O)Nc1ccc2cc1OCCOCCNc1ccn3ncc-2c3n1` [compound 26], the ΔTm at 10 µM in experiment [1] was 4.1 °C; in experiment [2] it was 2.3 °C; in experiment [3], 1.2 °C; in experiment [4] it was 1 °C; in experiment [5] it was 0.9 °C; in experiment [6], -0.1 °C. For the same molecule, the values for the shift in melting temperature (ΔTm) at 10 µM in experiment [7] and in experiment [8] were 0.3 °C and 0.5 °C, respectively.

With `O=C(NCc1ccccc1C(F)(F)F)Nc1ccc2cc1OCCOCCNc1ccn3ncc-2c3n1` [compound 27], the thermal shift (ΔTm) at 10 µM in experiment [1] is 4.7 °C; in experiment [2], 0.8 °C; in experiment [3] it was 1.2 °C; in experiment [4] it was 1.1 °C; in experiment [5] it was 1.4 °C; in experiment [6], -0.5 °C. In addition, the thermal shift (ΔTm) at 10 µM in experiment [7] worked out at 0.7 °C; in experiment [8], 0.4 °C.

`O=C(NCc1ccc(C(F)(F)F)cc1)Nc1ccc2cc1OCCOCCNc1ccn3ncc-2c3n1` [compound 28]: the thermal shift (ΔTm) at 10 µM in experiment [1] was 5.1 °C; in experiment [2], 1.2 °C; in experiment [3], 1.2 °C; in experiment [4] it was 1 °C; in experiment [5] it was 1.4 °C; in experiment [6] it was -0.5 °C. In addition, the thermal shift (ΔTm) at 10 µM was 1.1 °C in experiment [7] and 0.6 °C in experiment [8].

Turning to `COc1ccccc1CNC(=O)Nc1ccc2cc1OCCOCCNc1ccn3ncc-2c3n1` [compound 29], the thermal shift (ΔTm) at 10 µM in experiment [1] is 3.4 °C; in experiment [2] it was 1.5 °C; in experiment [3], 0.5 °C; in experiment [4], 1 °C; in experiment [5], 0.4 °C; in experiment [6] it was 0.2 °C. Besides, the ΔTm at 10 µM was -0.1 °C in experiment [7] and 0.2 °C in experiment [8].

With `COc1cccc(CNC(=O)Nc2ccc3cc2OCCOCCNc2ccn4ncc-3c4n2)c1` [compound 30], the ΔTm at 10 µM stood at 3.7 °C in experiment [1]; 3.1 °C in experiment [2]; 1.2 °C in experiment [3]; 1.3 °C in experiment [4]; 0.3 °C in experiment [5]; 0.2 °C in experiment [6]. Besides, the values for the thermal shift (ΔTm) at 10 µM in experiment [7] and in experiment [8] were 0 °C and 0.3 °C, respectively.
